Laboratory results published in US20120070451A1, “METHODS AND COMPOSITIONS FOR MODULATING CARDIAC CONTRACTILITY” (Consiglio Nazionale Delle Ricerche, priority 2009, published 2012).
Residues, ends and D or L forms follow the SMILES beside them. *: point of attachment. Cbz = O=C(OCc1ccccc1)*

Columns and labels:
Cavα1 currents = assay: Whole-cell patch clamp Ca2+ current (ICa,L) in cotransfected tsA-201 cells with or without serum; format: cell-based; conditions: cotransfection with Cavα1; 36 h
Protocol: FIG. 6. Akt phosphorylation of Cavβ2 preserves Cavα1 currents. Ca^2+ currents recorded in cotransfected tsA-201 cells with YFP-Cavα1 and either Cavβ2-WT, Cavβ2-SE, or Cavβ2-SA mutant, cultivated for 36 h in the presence or absence of fetal bovine serum (10%). Currents were recorded 1-2 minutes after the whole-cell configuration was achieved (i.e. after stabilization of the current) and were elicited by a 0 mV depolarization of 200 ms duration applied from a holding potential of −80 mV. Currents are normalized to cell capacitance (Current density, pA/pF). Representative current traces are shown. n>35 at each condition, (*P<0.05 compared to YFP-Cavα1, ANOVA).
FIG. 7. […] (C) Wild-type Cavα1 subunit (alone or cotransfected with Cavβ2SE) and its in-frame ΔPEST mutants (Cavα1-ΔP and Cavα1-ΔH) half-lives were determined in COST cells. After overnight starvation, transfected cells were pulse-chased and analyzed along a time course (*P<0.001 compared to Cavα1, ANOVA; n=3). […] (F) Ca^2+ currents recorded in tsA-201 cells cotransfected with Cavβ2-WT and either Cavα1-WT or Cavα1-ΔH and cultivated for 36 h in the presence or absence of fetal bovine serum (10%). […]
Macroscopic Ice, was recorded at room temperature (˜22° C.) using the whole-cell patch clamp technique in native cells as previously described (Aimond et al., 2005; Maier et al., 2003). […]

Cavα1 C-terminal domain = assay: GST pull-down in vitro binding assay; conditions: for Interaction with Cavα1 C-terminal domain: 35S-methionine-labeled C-Cavα1 (aa 1477-2169)
Description: FIG. 7. Rapid-protein-degradation PEST sequences determine Cavα1 protein instability. (A) Schematic representation of Cavα1 mapping the α1-interacting domain (AID) and PEST sequences in the I-II and II-III cytosolic loops. Deleted PEST sequences (P, H) are highlighted in red. (B) Western blot and immunofluorescence analyses showing relative levels of WT and PEST deleted mutants of YFP-Cavα1 (n=3). Bar represents 5 μm. (C) Wild-type Cavα1 subunit (alone or cotransfected with Cavβ2SE) and its in-frame ΔPEST mutants (Cavα1-ΔP and Cavα1-ΔH) half-lives were determined in COST cells. After overnight starvation, transfected cells were pulse-chased and analyzed along a time course (*P<0.001 compared to Cavα1, ANOVA; n=3). (D) Western blot and immunofluorescence analyses showing relative levels of WT GFP and N-terminal fusion PEST mutants (n=3). Bar represents 20 μm. (E) The Cavα1 C-terminus interacts with the Akt-phosphorylated-GST-Cavβ2 coiled coil region. Bacterially expressed GST or GST-C-Cavβ2 (Cavβ2: aa 480-655) fusion protein and glutathione sepharose beads were incubated with equal amounts of in vitro translated [^35S] methionine-labeled C-Cavα1 (Cavα1: aa 1477-2169). […] Bound proteins were resolved by SDS-PAGE (4-12%). 10% of the input protein in each binding reaction is shown. Coomassie staining of SDS-PAGE is shown in the bottom panel. (F) Ca^2+ currents recorded in tsA-201 cells cotransfected with Cavβ2-WT and either Cavα1-WT or Cavα1-ΔH and cultivated for 36 h in the presence or absence of fetal bovine serum (10%). Current densities (pA/pF) are normalized to the control condition. n>35 at each condition, (*P<0.05 compared to Cavα1, ANOVA). […]
Affinity-purified GST-fusion proteins were generated using a pGEX system (Amersham) and phosphorylated as described below. […] Bound proteins were eluted in SDS sample buffer, subjected to SDS-PAGE, and detected by autoradiography. […]

Cavα1 = assay: Western blot of YFP-Cavα1 in transfected COS-7 cells treated with Akt inhibitor and degradation-system inhibitors; format: cell-based
Protocol: FIG. 3. Akt mediates regulation of Cavα1 protein density at the plasma membrane. (A) RT-PCR analysis of Cavα1 mRNA expression from WT and KO ventricular extracts. GADPH serves as loading control. (B) Western blot analysis of whole lysate, membrane, and microsomal fractions from WT and KO ventricular extracts. (C) YFP-Cavα1 transfected COS-7 cells alone or in combination with Cavβ2-expression vector were serum-starved and treated with Akt inhibitor and 1 μM bafilomycin-A1, 25 μM MG132, or 25 μM calpeptin. 6 h post drug administration, cell lysates were prepared and subjected to Western blot analysis for YFP. GAPDH served as a loading control. (D-E) Cavα1 protein levels in KO cardiomyocytes infected with empty (mock) or active E40K-Akt (AdAkt) expressing adenoviral vector (D) and in whole lysates of WT and E40K-Akt (Tg Akt) hearts (E). Representative experiments are shown (n=4).
However, since the amount of Cavα1 was reduced in both microsomal and membrane fractions from KO extracts compared to WT (FIG. 3B), we hypothesized that the reduced Cavα1 level observed in KO mice was due to enhanced protein degradation in addition to impaired protein translocation to the plasma membrane. To assess the pathway involved in the Akt-dependent Cavα1 protein degradation, three sets of specific cell degradation system inhibitors were examined for their ability to prevent the decrease in Cavα1 protein elicited by Akt inhibition. […] Similar results were obtained by inhibiting calpain, the intracellular, Ca^2+-dependent cysteine protease known to be involved in membrane protein degradation (Belles et al., 1988; Romanin et al., 1991).
Cell transfection was performed in serum-starved medium using LipoFectamine2000 (Invitrogen) according to the manufacturer's instructions. 5 μM Akt-XI inhibitor (Calbiochem), insulin (Sigma), 1 μM bafilomycin-A 1 (Sigma), 25 μM MG132 (Calbiochem), and 25 μM Calpeptin (Calbiochem) were used as described. […]
Proteins expression was evaluated in total lysates or cell fractions by Western blot analysis according to standard procedures. […]

[1] = Cavα1 and Cavβ2 cotransfected cells, 1 μM bafilomycin-A1, 25 μM MG132 or 25 μM calpeptin, 6 h

Cavβ2-WT: wild-type Ca2+ beta2 channel accessory subunit
ICa,L in serum-free medium compared to serum-containing medium (Cavα1 currents): significant depressed ICa,L

Akt-phosphorylated Cavβ2 C-terminal coiled coil region: bacterially expressed GST-C-Cavβ2 (Cavβ2: aa 480-655) fusion protein phosphorylated by recombinant Akt
Interaction with Cavα1 C-terminal domain (Cavα1 C-terminal domain): direct interaction took place
Interaction with Cavα1 C-terminal domain (Cavα1 C-terminal domain; listed as Akt-phosphorylated GST-C-Cavβ2): Binding occurred
Interaction with other Cavα1 cytosolic domains (Cavα1 C-terminal domain; data not shown): No interactions were found

CC(C)C[C@@H](C=O)NC(=O)[C@H](CC(C)C)NC(=O)[C@H](CC(C)C)NC(=O)OCc1ccccc1 [MG132] (Cbz-Leu-Leu-Leu-aldehyde)
Cavα1 protein decrease induced by Akt inhibition (Cavα1; [1]): failed to protect Cavα1 from protein degradation

CO/C1=C\C(C)=C\[C@@H](C)[C@@H](O)[C@@H](C)C/C(C)=C/C=C/[C@H](OC)[C@@H]([C@@H](C)[C@@H](O)[C@H](C)[C@@]2(O)C[C@@H](O)[C@H](C)[C@@H](C(C)C)O2)OC1=O [bafilomycin-A1]
Cavα1 protein decrease induced by Akt inhibition (Cavα1; [1]): prevented the decrease in Cavα1 protein induced by Akt inhibition
Cavα1 protein decrease induced by Akt inhibition (Cavα1; absence of Cavβ2 cotransfection): protection effect was abolished
